These are literature values, as cited in patent US8071619B2, “Injectable liquid formulation of paracetamol” (priority 2003, dated 2011).

The structures appear in SMILES notation.

For the data set the following is noted: aqueous solution; K. T. Koshy et al., 1961.

With `CC(=O)Nc1ccc(O)cc1` [paracetamol, N-(4-hydroxy-phenyl)acetamide], the “pH at which the rate of degradation of paracetamol is minimal” value was roughly 6.
